Data from publication PMC5718519, “Crystal structures of ternary complexes of archaeal B-family DNA polymerases” (PLoS ONE, 2017).

Target: T1, KOD DNA pol (exo-) (Thermococcus kodakarensis, UniProt P77933, D141A/E143A)
T1 construct: exonuclease-deficient mature polymerase (inteins absent); codon-optimized, pET24a, E. coli BL21(DE3); heparin and Superdex 75; no tag mentioned
Experiment: X-ray crystal structure of closed ternary complex
Format: binding
Details: with ddC-terminated primer/template DNA; Mg2+ (site A) and two Mn2+ (sites B, C); polymerase active site; pH 7.5

Nc1ncnc2c1ncn2[C@H]1C[C@H](O)[C@@H](COP(=O)(O)OP(=O)(O)OP(=O)(O)O)O1 [dATP, 2’-deoxy-adenosine-5’-triphosphate]
X-ray crystal structure of closed ternary complex: KOD DNA pol binds the incoming dATP in a pocket formed by the palm
